According to ChEMBL document CHEMBL1201862, “PubChem BioAssay data set” (2004):
Active and inactive are the calls of the source.

Columns and labels:
Vero = Vero cell cytotoxicity, cytotoxicity control for flavivirus capping enzyme inhibitors (AID 588742); type: functional; settings: Chlorocebus sabaeus
Hexokinase HKDC1 = target: T1, Hexokinase HKDC1 (Homo sapiens, UniProt Q2TB90); experiment: HKDC1 hexokinase inhibitors, dose response, biochemical, W721R variant (AID 504729); type: functional
T1 sequence (Q2TB90 whole entry): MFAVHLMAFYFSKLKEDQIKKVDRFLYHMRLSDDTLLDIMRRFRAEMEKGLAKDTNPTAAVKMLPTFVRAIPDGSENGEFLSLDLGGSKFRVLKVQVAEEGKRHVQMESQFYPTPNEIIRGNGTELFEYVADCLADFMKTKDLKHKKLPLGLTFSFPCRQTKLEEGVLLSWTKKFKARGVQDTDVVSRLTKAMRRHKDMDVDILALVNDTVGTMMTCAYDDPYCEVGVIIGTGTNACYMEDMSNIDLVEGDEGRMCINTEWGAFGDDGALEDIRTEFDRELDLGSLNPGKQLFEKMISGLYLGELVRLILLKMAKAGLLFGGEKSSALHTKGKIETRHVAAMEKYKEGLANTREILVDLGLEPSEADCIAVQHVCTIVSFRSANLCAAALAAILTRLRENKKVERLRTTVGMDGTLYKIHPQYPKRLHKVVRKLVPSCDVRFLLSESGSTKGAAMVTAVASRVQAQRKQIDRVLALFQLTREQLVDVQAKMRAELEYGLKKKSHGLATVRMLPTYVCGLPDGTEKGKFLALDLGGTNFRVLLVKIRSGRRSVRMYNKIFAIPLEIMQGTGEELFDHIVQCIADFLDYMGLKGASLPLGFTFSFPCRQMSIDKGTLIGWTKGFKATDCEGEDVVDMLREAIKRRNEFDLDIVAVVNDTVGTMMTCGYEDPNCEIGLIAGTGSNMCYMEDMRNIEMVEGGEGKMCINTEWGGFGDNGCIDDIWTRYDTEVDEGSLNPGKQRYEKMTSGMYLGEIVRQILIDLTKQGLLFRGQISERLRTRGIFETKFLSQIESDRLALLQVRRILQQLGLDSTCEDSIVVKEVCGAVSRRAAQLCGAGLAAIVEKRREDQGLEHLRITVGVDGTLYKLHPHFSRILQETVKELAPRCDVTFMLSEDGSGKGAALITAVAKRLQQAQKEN

Beta-galactosidase [1] = target: T2, Beta-galactosidase (Escherichia coli, UniProt Q8VNN2); experiment: beta-galactosidase enzyme inhibitors and activators, dose response, artefact control for CCR6 antagonist project, biochemical, E. coli enzyme, set 3 (AID 504712); type: functional
Beta-arrestin-1 = Beta-arrestin-1 (Homo sapiens, UniProt P49407); experiment: inhibitors of arrestin peptide binding to AP2, dose response, biochemical, cherry pick 1, beta2-adaptin appendage, flow cytometry (AID 588783); type: functional
[2] = target: T3, Polyadenylate-binding protein 1 (Homo sapiens, UniProt P11940); experiment: PABP1 MLLE–PAM2 interaction inhibitors, dose response, miRNA deadenylation inhibitor project, biochemical, fluorescence polarization, Cy5-PAM2 peptide, secondary (AID 602260); type: functional; settings: read-out: IC50_Mean
[3] = inhibitors of intracellular T. cruzi replication, confirmation, NIH3T3 host cells, beta-gal luminescence (AID 2044); type: functional, cell-based;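 further: intracellular parasites grown in NIH/3T3 mouse fibroblasts as host cells; luminescent beta-galactosidase reporter signal from transgenic T. cruzi replicating inside host cells; inhibitors lower the luminescence signal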
[4] = cytotoxicity toward NIH3T3 fibroblasts, dose response, counter-screen, cell-based, ATP luminescence, mouse fibroblasts (AID 2010); type: functional;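 further: cells exposed to compound for about 90 hours before reading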
Genome polyprotein = Genome polyprotein (dengue virus type 2, UniProt P29990); experiment: Dengue-2 NS5 methyltransferase inhibitors, primary screen, biochemical, confirmation dose response (AID 588689); type: functional
[5] = target: T3, Polyadenylate-binding protein 1; experiment: PABP1 MLLE–PAM2 binding inhibitor potency, dose response, biochemical, fluorescence polarization, FITC-PAM2 peptide (AID 602259); type: functional; settings: read-out: IC50_Mean
[6] = target: T4, Rac GTPase-activating protein 1 (Homo sapiens, UniProt Q9H0H5); experiment: MgcRacGAP GTPase-activating activity inhibitors, confirmation, biochemical, ADP Hunter fluorescence, primary and confirmatory (AID 624330); type: functional
T4 sequence (Q9H0H5 whole entry): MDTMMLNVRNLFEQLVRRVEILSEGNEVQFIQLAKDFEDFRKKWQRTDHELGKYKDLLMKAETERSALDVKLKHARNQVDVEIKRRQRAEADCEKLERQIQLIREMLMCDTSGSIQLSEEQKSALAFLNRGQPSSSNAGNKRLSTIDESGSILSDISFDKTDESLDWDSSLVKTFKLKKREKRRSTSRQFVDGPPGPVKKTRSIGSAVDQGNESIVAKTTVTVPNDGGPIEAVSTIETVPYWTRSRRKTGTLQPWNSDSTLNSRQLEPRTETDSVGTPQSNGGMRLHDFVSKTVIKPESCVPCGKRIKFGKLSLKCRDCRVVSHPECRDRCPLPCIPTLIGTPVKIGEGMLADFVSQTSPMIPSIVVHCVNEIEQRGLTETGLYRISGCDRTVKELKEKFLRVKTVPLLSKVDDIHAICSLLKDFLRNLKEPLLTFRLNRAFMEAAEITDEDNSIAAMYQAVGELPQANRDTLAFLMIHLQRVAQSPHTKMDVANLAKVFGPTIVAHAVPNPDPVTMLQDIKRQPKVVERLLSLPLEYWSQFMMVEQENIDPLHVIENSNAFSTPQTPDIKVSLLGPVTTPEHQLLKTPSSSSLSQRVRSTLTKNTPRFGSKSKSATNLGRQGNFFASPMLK

[7] = target: ATP-dependent molecular chaperone HSP82 (Candida albicans (strain WO-1) (Yeast), UniProt C4YTQ8); experiment: loss of DOC-induced GRE-beta-galactosidase reporter signal, dose response, Hsp90 inhibitor project, S. cerevisiae, luminescence (AID 2400); type: functional, cell-based;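 further: beta-galactosidase luminescence from glucocorticoid response element reporter as proxy for Hsp90 function; inhibitor potency where signal loss means Hsp90 inhibition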
Leucine aminopeptidase = target: T5, Leucine aminopeptidase (Plasmodium falciparum 3D7, UniProt Q8IL11); experiment: P. falciparum M17LAP inhibitors, primary screen, biochemical, fluorogenic H-Leu-NHMec substrate, 1536-well (AID 1619); type: functional
T5 sequence (Q8IL11 whole entry): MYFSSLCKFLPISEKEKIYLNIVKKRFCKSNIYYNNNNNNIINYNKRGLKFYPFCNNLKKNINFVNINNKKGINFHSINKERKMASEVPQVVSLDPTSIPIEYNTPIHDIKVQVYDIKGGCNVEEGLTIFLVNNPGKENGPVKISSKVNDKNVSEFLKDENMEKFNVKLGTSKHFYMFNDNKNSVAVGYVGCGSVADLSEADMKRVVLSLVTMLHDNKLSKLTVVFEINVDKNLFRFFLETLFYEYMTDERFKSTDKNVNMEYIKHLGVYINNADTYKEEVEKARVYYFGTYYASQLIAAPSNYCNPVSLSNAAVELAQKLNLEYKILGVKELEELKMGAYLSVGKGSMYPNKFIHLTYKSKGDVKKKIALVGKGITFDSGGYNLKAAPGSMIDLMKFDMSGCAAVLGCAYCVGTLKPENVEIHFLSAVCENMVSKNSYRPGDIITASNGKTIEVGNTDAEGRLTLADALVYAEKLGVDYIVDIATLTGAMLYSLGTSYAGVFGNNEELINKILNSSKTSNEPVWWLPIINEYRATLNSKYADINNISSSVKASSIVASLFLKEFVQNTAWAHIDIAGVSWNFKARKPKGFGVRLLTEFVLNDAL

[8] = target: Serine/threonine-protein phosphatase (Candida dubliniensis (strain CD36 / CBS 7987 / NCPF 3949 / NRRLY-17841) (Yeast), UniProt B9W6M3); experiment: calcineurin pathway inhibitors in yeast reporter, dose response, S. cerevisiae, CDRE-lacZ, luminescence, secondary (AID 2388); type: functional, cell-based;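 further: yeast reporter cells carrying a calcineurin-responsive lacZ construct stimulated with calcium chloride; luminescent beta-galactosidase reporter signal in whole cells rather than isolated phosphatase activity; potency for inhibition where a drop in reporter signal means calcineurin blockade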
[9] = target: Lytic switch protein BZLF1 (Epstein-Barr virus (strain B95-8) (HHV-4) (Human herpesvirus 4), UniProt P03206); experiment: EBV ZTA inhibitors, dose response, counter-screen for EBNA-1 inhibitor project, biochemical, fluorescence polarization, Epstein-Barr virus, 1536-well (AID 2377); parameters: species or system human gammaherpesvirus 4;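 further: fluorescence polarization of Cy5-labelled ZRE DNA probe bound by purified Zta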
[10] = target: Type-1 angiotensin II receptor (Homo sapiens, UniProt P30556); experiment: AT1 receptor antagonists, dose response, selectivity assay for APJ receptor antagonist project, cell-based, uHTS hits (AID 463214); type: functional;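 further: antagonist potency against angiotensin II stimulated AT1 response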
[11] = target: Epstein-Barr nuclear antigen 1 (Epstein-Barr virus (strain B95-8) (HHV-4) (Human herpesvirus 4), UniProt P03211); experiment: EBNA-1 inhibitors, dose response, biochemical, fluorescence polarization, 1536-well (AID 2381); parameters: species or system human gammaherpesvirus 4;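 further: fluorescence polarization of a Cy5 DNA probe bound by EBNA-1 protein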
Beta-galactosidase [12] = target: T2, Beta-galactosidase; experiment: PubChem AID 485352; type: functional

T3 sequence (P11940 whole entry): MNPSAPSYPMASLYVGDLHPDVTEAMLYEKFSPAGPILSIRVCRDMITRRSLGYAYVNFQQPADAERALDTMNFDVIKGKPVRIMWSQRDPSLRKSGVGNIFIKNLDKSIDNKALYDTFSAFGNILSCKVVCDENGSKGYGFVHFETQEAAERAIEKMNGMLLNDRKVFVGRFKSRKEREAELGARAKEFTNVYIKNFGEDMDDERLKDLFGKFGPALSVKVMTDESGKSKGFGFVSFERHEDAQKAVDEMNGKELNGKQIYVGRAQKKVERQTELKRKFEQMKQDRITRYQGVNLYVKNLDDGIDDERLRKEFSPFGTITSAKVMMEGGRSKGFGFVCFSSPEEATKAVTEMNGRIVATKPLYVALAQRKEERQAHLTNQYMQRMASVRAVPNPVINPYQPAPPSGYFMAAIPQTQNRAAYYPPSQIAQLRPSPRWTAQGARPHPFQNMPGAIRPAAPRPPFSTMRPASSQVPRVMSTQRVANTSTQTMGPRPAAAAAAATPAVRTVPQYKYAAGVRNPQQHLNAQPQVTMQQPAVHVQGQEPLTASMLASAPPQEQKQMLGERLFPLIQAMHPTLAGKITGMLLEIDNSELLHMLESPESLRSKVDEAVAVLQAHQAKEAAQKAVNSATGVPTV
T2 sequence (Q8VNN2 whole entry): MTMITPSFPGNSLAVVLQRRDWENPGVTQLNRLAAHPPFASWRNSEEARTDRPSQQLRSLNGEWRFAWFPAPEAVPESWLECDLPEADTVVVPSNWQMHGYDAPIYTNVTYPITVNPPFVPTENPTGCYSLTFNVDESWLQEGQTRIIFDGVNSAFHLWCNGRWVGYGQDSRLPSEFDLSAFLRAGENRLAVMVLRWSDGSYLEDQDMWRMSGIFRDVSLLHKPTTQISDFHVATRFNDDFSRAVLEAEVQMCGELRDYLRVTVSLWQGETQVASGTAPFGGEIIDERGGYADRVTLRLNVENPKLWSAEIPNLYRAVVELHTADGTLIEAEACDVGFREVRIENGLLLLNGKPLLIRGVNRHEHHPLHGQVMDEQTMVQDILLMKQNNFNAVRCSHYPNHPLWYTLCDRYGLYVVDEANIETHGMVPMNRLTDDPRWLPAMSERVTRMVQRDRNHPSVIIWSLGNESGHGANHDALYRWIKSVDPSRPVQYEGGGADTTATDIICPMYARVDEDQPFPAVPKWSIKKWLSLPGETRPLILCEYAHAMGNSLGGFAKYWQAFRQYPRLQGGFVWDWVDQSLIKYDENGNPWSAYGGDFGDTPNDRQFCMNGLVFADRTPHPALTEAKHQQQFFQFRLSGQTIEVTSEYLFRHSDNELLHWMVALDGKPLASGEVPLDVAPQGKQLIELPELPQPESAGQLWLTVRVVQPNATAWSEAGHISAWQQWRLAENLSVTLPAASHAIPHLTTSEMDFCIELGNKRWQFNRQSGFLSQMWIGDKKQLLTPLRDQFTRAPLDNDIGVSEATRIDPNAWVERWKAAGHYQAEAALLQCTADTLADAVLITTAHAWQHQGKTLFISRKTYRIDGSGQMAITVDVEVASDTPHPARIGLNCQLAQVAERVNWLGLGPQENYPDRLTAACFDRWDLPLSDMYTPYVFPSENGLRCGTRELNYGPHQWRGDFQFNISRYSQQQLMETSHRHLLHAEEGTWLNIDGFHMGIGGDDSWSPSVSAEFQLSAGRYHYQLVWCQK
Serine/threonine-protein phosphatase, sequence (B9W6M3 whole entry): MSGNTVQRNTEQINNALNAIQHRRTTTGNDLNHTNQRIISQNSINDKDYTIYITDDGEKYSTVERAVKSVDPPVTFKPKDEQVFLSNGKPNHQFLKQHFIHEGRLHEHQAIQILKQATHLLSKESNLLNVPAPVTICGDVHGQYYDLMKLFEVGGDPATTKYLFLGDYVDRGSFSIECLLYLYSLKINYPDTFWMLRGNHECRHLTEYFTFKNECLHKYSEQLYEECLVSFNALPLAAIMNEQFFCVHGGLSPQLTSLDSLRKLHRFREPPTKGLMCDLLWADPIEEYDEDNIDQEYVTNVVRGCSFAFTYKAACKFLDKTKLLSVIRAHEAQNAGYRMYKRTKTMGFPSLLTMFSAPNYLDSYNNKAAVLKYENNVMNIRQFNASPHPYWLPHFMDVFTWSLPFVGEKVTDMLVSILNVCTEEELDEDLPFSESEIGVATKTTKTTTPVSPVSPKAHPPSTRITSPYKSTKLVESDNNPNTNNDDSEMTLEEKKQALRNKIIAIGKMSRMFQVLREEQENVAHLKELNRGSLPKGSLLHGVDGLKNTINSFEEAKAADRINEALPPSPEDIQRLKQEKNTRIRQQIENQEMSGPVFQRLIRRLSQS
Beta-arrestin-1, sequence (P49407 whole entry): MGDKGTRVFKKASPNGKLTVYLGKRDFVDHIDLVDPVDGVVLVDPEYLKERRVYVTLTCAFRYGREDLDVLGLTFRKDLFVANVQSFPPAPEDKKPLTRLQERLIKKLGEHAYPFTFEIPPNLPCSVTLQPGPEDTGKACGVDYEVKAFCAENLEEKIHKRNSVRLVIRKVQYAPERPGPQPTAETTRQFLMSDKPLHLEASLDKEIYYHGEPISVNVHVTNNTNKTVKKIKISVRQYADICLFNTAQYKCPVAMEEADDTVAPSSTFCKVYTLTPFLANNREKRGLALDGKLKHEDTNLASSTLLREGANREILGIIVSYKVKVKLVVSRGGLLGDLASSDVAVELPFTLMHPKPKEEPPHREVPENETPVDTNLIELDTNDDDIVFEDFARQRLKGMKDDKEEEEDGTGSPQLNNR
Lytic switch protein BZLF1, sequence (P03206 whole entry): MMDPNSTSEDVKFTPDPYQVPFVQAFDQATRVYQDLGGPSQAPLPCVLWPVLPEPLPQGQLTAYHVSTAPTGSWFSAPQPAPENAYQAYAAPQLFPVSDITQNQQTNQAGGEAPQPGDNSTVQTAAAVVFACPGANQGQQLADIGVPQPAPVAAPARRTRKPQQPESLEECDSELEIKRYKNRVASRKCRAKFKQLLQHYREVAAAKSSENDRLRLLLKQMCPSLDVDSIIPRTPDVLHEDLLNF
Genome polyprotein, sequence (P29990 2492-3391 limits assumed): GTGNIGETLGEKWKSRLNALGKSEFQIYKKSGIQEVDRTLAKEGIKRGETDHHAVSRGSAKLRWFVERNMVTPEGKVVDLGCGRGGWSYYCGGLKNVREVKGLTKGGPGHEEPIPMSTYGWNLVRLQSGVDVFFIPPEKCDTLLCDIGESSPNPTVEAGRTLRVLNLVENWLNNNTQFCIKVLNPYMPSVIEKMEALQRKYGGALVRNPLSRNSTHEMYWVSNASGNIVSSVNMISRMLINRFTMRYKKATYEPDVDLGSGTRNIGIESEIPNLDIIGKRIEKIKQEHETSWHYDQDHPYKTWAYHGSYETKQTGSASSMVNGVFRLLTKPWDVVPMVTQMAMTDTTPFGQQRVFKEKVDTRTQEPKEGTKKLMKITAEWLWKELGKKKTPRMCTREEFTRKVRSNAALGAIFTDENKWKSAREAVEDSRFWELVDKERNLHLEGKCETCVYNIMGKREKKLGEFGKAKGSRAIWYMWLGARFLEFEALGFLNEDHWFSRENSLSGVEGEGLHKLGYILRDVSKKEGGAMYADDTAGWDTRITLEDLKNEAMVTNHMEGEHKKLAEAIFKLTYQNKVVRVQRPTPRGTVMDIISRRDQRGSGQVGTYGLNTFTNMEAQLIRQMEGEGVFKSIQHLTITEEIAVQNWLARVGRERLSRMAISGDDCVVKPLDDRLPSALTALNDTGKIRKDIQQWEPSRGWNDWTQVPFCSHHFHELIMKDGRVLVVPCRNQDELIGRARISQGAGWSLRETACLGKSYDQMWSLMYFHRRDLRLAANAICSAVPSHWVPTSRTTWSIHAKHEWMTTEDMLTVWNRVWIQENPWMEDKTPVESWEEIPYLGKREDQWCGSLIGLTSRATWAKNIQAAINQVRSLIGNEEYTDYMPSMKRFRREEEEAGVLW
ATP-dependent molecular chaperone HSP82, sequence (C4YTQ8 whole entry): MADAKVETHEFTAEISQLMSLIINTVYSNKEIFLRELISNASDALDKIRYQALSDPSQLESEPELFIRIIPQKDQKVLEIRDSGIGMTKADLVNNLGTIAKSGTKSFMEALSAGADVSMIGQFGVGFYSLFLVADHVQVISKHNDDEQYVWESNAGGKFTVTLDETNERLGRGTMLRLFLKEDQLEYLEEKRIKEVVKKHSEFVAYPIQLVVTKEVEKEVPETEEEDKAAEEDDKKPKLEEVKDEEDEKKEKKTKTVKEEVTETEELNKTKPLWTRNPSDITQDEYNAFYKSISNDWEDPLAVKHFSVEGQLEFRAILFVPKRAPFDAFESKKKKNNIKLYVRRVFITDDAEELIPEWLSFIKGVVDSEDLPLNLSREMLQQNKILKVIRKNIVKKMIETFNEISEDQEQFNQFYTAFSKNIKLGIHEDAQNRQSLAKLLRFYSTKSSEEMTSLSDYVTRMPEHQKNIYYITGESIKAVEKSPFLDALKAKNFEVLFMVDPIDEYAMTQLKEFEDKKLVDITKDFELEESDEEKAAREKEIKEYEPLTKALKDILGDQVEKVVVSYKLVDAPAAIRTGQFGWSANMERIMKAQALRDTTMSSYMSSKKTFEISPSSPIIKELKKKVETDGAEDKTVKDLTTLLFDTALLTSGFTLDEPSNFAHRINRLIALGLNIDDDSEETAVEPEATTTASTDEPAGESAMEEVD
Type-1 angiotensin II receptor, sequence (P30556 whole entry): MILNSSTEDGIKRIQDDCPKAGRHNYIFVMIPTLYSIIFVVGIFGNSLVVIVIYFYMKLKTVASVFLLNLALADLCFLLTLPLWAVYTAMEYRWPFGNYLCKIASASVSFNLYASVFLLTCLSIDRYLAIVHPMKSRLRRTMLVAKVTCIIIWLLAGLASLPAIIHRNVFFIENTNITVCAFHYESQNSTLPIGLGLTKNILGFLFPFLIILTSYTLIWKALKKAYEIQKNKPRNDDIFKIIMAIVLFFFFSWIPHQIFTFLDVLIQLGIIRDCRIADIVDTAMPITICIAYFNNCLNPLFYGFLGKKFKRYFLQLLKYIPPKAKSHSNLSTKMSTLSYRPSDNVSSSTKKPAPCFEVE

Q: For `O=C1C(Cl)=C(NC(=O)c2ccccc2)C(=O)C(Cl)=C1NC(=O)c1ccccc1`, which CC50 (Vero) is on record?
A: 29.5 µM (active)

Q: And the IC50 (Hexokinase HKDC1)?
A: 17.3 µM (active)

Q: And the IC50 (Beta-galactosidase [1])?
A: > 66.6 µM (inactive)

Q: And the IC50 (Beta-arrestin-1)?
A: 4.97 µM (active)

Q: And the IC50 [2]?
A: 44.5 µM (inactive)

Q: What about the EC50 [3] of the same compound?
A: 2.13 µM (active)

Q: What about the EC50 [4] of the same compound?
A: 2.78 µM (active)

Q: What about the IC50 (Genome polyprotein) of the same compound?
A: 3.53 µM (active)

Q: And the IC50 [5]?
A: > 66 µM (inactive)

Q: And the IC50 [6]?
A: 6.06 µM (active)

Q: Which EC50 [7] does the source give for `COc1ccc(-n2c(-c3cccc(C)c3[N+](=O)[O-])n[nH]c2=S)cc1` here?
A: > 150 µM (inactive)

Q: What about the IC50 (Leucine aminopeptidase) of the same compound?
A: 23.8 µM (active)

Q: What about the EC50 [8] of the same compound?
A: > 180 µM (inactive)

Q: For `CC(C)C(=O)Nc1cccc(C(=O)OCC(=O)c2ccc(Cl)cc2Cl)c1`, which IC50 [9] is on record?
A: > 111 µM (not active)

Q: And the IC50 [10]?
A: > 40 µM (not active)

Q: And the IC50 [11]?
A: 11.3 µM (not active)

Q: What about the EC50 (Beta-galactosidase [12]) of the same compound?
A: > 40 µM (inactive)
